From patent US6355799B1, “Substituted benzene compounds, process for their preparation, and herbicidal and defoliant compositions containing them” (ISK Americas Incorporated, priority 1997, dated 2002)
Each block holds one compound with its values, some of them ahead of it.

Assays:
[1] = test system: redroot pigweed (Amaranthus retroflexus, AMARE); experiment: Pre-emerge test, greenhouse herbicide activity screening; type: in vivo; conditions: pre-emerge, phytotoxicity rating 0-100 at 14 days after application
Summary of the method: (§1)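 Herbicidal damage is scored 0 (none) to 100 (complete plant death) two weeks after a simulated field spray. Rates span 15–1000 g ai/ha, delivered in acetone at 187 l/ha. For post-emergence treatments, plants have 2–3 leaves and the spray carries 0.25% v/v non-ionic surfactant.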

[2] = test system: soybean (Glycine max L., var. Pella 86, SOY); experiment: Pre-emerge test, crop safety; type: in vivo; conditions: crop damage, pre-emerge, phytotoxicity rating 0-100 at 14 days after application
Summary of the method: (§2)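 Visual ratings on a 0-100 scale (0 no damage, 100 all plants dead) were taken at 14 days after treatment. Rates of 15-1000 g ai/ha in acetone, 187 l/ha, were sprayed onto soil one day after planting (pre-emerge) or onto 2-3 leaf plants with 0.25% v/v surfactant (post-emerge).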

[3] = test system: upland rice (Oryza sp., var. Tebonnet, RICE); experiment: Pre-emerge test, crop safety; type: in vivo; conditions: crop damage, pre-emerge, phytotoxicity rating 0-100 at 14 days after application
Summary of the method: as §2

[4] = test system: field corn (Zea mays L., var. Dekalb 535, CORN); experiment: Pre-emerge test, crop safety; type: in vivo; conditions: crop damage, pre-emerge, phytotoxicity rating 0-100 at 14 days after application
Summary of the method: as §2

[5] = test system: large crabgrass (Digitaria sanguinalis, DIGSA); experiment: Pre-emerge test, greenhouse herbicide activity screening; type: in vivo; conditions: pre-emerge, phytotoxicity rating 0-100 at 14 days after application
Summary of the method: as §1

[6] = test system: johnsongrass (Sorghum halepense, SORHA); experiment: as above; type: in vivo; conditions: pre-emerge, phytotoxicity rating 0-100 at 14 days after application
Summary of the method: as §1

[7] = test system: ivyleaf morningglory (Ipomoea hederacea, IPOHE); experiment: as above; type: in vivo; conditions: pre-emerge, phytotoxicity rating 0-100 at 14 days after application
Summary of the method: as §1

[8] = test system: green foxtail (Setaria viridis, SETVI); experiment: as above; type: in vivo; conditions: pre-emerge, phytotoxicity rating 0-100 at 14 days after application
Summary of the method: as §1

[9] = test system: sicklepod (Cassia obtusifolia, CASOB); experiment: as above; type: in vivo; conditions: pre-emerge, phytotoxicity rating 0-100 at 14 days after application
Summary of the method: as §1

[10] = test system: velvetleaf (Abutilon theophrasti, ABUTH); experiment: as above; type: in vivo; conditions: pre-emerge, phytotoxicity rating 0-100 at 14 days after application
Summary of the method: as §1

[11] = test system: lambsquarters (Chenopodium album, CHEAL); experiment: as above; type: in vivo; conditions: pre-emerge, phytotoxicity rating 0-100 at 14 days after application
Summary of the method: as §1

[12] = test system: barnyardgrass (Echinochloa crus-galli, ECHCG); experiment: as above; type: in vivo; conditions: pre-emerge, phytotoxicity rating 0-100 at 14 days after application
Summary of the method: as §1

[13] = test system: large crabgrass (Digitaria sanguinalis, DIGSA); experiment: Post-emerge test, greenhouse herbicide activity screening; type: in vivo; conditions: post-emerge, phytotoxicity rating 0-100 at 14 days after application
Summary of the method: (§3)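 Compounds in acetone were track-sprayed at 15-1000 g ai/ha (187 l/ha) on sandy loam pots: pre-emerge one day after seeding, post-emerge at 2-3 leaf stage with 0.25% v/v non-ionic surfactant. Phytotoxicity was rated 14 days later on a 0 (no damage) to 100 (complete death) scale.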

[14] = test system: johnsongrass (Sorghum halepense, SORHA); experiment: as above; type: in vivo; conditions: post-emerge, phytotoxicity rating 0-100 at 14 days after application
Summary of the method: as §3

[15] = test system: ivyleaf morningglory (Ipomoea hederacea, IPOHE); experiment: as above; type: in vivo; conditions: post-emerge, phytotoxicity rating 0-100 at 14 days after application
Summary of the method: as §3

[16] = test system: green foxtail (Setaria viridis, SETVI); experiment: as above; type: in vivo; conditions: post-emerge, phytotoxicity rating 0-100 at 14 days after application
Summary of the method: as §3

[17] = test system: sicklepod (Cassia obtusifolia, CASOB); experiment: as above; type: in vivo; conditions: post-emerge, phytotoxicity rating 0-100 at 14 days after application
Summary of the method: as §3

[18] = test system: velvetleaf (Abutilon theophrasti, ABUTH); experiment: as above; type: in vivo; conditions: post-emerge, phytotoxicity rating 0-100 at 14 days after application
Summary of the method: as §3

[19] = test system: lambsquarters (Chenopodium album, CHEAL); experiment: as above; type: in vivo; conditions: post-emerge, phytotoxicity rating 0-100 at 14 days after application
Summary of the method: as §3

[20] = test system: redroot pigweed (Amaranthus retroflexus, AMARE); experiment: as above; type: in vivo; conditions: post-emerge, phytotoxicity rating 0-100 at 14 days after application
Summary of the method: as §3

[21] = test system: barnyardgrass (Echinochloa crus-galli, ECHCG); experiment: as above; type: in vivo; conditions: post-emerge, phytotoxicity rating 0-100 at 14 days after application
Summary of the method: as §3

[22] = test system: soybean (Glycine max L., var. Pella 86, SOY); experiment: Post-emerge test, crop safety; type: in vivo; conditions: crop damage rating 0-100 at 14 days after application
Summary of the method: as §1

[23] = test system: upland rice (Oryza sp., var. Tebonnet, RICE); experiment: Post-emerge test, crop safety; type: in vivo; conditions: post-emerge, crop damage rating 0-100 at 14 days after application
Summary of the method: as §1

[24] = test system: field corn (Zea mays L., var. Dekalb 535, CORN); experiment: Post-emerge test, crop safety; type: in vivo; conditions: post-emerge, crop damage rating 0-100 at 14 days after application
Summary of the method: as §1

- melting point: 156 to 157 °C
Structure (SMILES): COc1c(Cl)cc(F)c(-n2ncc(C(F)(F)F)cc2=O)c1N [Compound 11-4, 2-(2-amino-4-chloro-6-fluoro-3-methoxyphenyl)-5-trifluoromethylpyridazin-3-one]

Structure (SMILES): C#CCOc1c(Cl)cc(F)c(-n2nnn(CCCF)c2=O)c1N [Compound 5-17, 1-(2-amino-4-chloro-6-fluoro-3-propargyloxyphenyl)-4-(3-fluoroproyl)-1,4-dihydro-5-oxo-5H-tetrazole]
- Pre-emerge Herbicidal Activity AMARE ([1]; rate 63 g ai/ha): 30
- Pre-emerge Herbicidal Activity AMARE ([1]; rate 250 g ai/ha): 100
- Pre-emerge Herbicidal Activity SOY ([2]; rate 63 g ai/ha): 0
- Pre-emerge Herbicidal Activity SOY ([2]; rate 250 g ai/ha): 0
- Pre-emerge Herbicidal Activity RICE ([3]; rate 63 g ai/ha): 20
- Pre-emerge Herbicidal Activity RICE ([3]; rate 250 g ai/ha): 20
- Pre-emerge Herbicidal Activity CORN ([4]; rate 63 g ai/ha): 0
- Pre-emerge Herbicidal Activity CORN ([4]; rate 250 g ai/ha): 0
- Pre-emerge Herbicidal Activity DIGSA ([5]; rate 63 g ai/ha): 30
- Pre-emerge Herbicidal Activity DIGSA ([5]; rate 250 g ai/ha): 50
- Pre-emerge Herbicidal Activity SORHA ([6]; rate 63 g ai/ha): 40
- Pre-emerge Herbicidal Activity SORHA ([6]; rate 250 g ai/ha): 70
- Pre-emerge Herbicidal Activity IPOHE ([7]; rate 63 g ai/ha): 0
- Pre-emerge Herbicidal Activity IPOHE ([7]; rate 250 g ai/ha): 0
- Pre-emerge Herbicidal Activity SETVI ([8]; rate 63 g ai/ha): 95
- Pre-emerge Herbicidal Activity SETVI ([8]; rate 250 g ai/ha): 100
- Pre-emerge Herbicidal Activity CASOB ([9]; rate 63 g ai/ha): 0
- Pre-emerge Herbicidal Activity CASOB ([9]; rate 250 g ai/ha): 30
- Pre-emerge Herbicidal Activity ABUTH ([10]; rate 63 g ai/ha): 40
- Pre-emerge Herbicidal Activity ABUTH ([10]; rate 250 g ai/ha): 100
- Pre-emerge Herbicidal Activity CHEAL ([11]; rate 63 g ai/ha): 70
- Pre-emerge Herbicidal Activity CHEAL ([11]; rate 250 g ai/ha): 100
- Pre-emerge Herbicidal Activity ECHCG ([12]; rate 63 g ai/ha): 0
- Pre-emerge Herbicidal Activity ECHCG ([12]; rate 250 g ai/ha): 40
- Post-emerge Herbicidal Activity DIGSA ([13]; 63 g ai/ha): 0
- Post-emerge Herbicidal Activity DIGSA ([13]; 250 g ai/ha): 0
- Post-emerge Herbicidal Activity SORHA ([14]; 63 g ai/ha): 0
- Post-emerge Herbicidal Activity SORHA ([14]; 250 g ai/ha): 10
- Post-emerge Herbicidal Activity IPOHE ([15]; 63 g ai/ha): 30
- Post-emerge Herbicidal Activity IPOHE ([15]; 250 g ai/ha): 40
- Post-emerge Herbicidal Activity SETVI ([16]; 63 g ai/ha): 0
- Post-emerge Herbicidal Activity SETVI ([16]; 250 g ai/ha): 80
- Post-emerge Herbicidal Activity CASOB ([17]; 63 g ai/ha): 0
- Post-emerge Herbicidal Activity CASOB ([17]; 250 g ai/ha): 30
- Post-emerge Herbicidal Activity ABUTH ([18]; 63 g ai/ha): 90
- Post-emerge Herbicidal Activity ABUTH ([18]; 250 g ai/ha): 100
- Post-emerge Herbicidal Activity CHEAL ([19]; 63 g ai/ha): 20
- Post-emerge Herbicidal Activity CHEAL ([19]; 250 g ai/ha): 60
- Post-emerge Herbicidal Activity AMARE ([20]; 63 g ai/ha): 0
- Post-emerge Herbicidal Activity AMARE ([20]; 250 g ai/ha): 30
- Post-emerge Herbicidal Activity ECHCG ([21]; 63 g ai/ha): 0
- Post-emerge Herbicidal Activity ECHCG ([21]; 250 g ai/ha): 20
- Post-emerge Herbicidal Activity SOY ([22]; 63 g ai/ha): 15
- Post-emerge Herbicidal Activity SOY ([22]; 250 g ai/ha): 70
- Post-emerge Herbicidal Activity RICE ([23]; 63 g ai/ha): 10
- Post-emerge Herbicidal Activity RICE ([23]; 250 g ai/ha): 50
- Post-emerge Herbicidal Activity CORN ([24]; 63 g ai/ha): 0
- Post-emerge Herbicidal Activity CORN ([24]; 250 g ai/ha): 10
